According to US9561233B2, “Use of ibogaine for the treatment of pain” (DemeRX, Inc., priority 2014, dated 2017):

Columns and labels:
QT interval = QT interval of patients treated with ibogaine; format: in vivo, human; conditions: higher dosing unacceptable
Excerpt: A prolonged QT interval is a marker of potential Torsades de Pointes, a serious arrhythmia that can result in death.
As used herein, the term “QT interval” refers to the measure of the time between the start of the Q wave and the end of the T wave in the electrical cycle of the heart. Prolongation of the QT interval refers to an increase in the QT interval.

pain in patients = test: human clinical studies of ibogaine dosing, alleviation of pain; format: in vivo; conditions: lower dosing of ibogaine (lower end of prior-art range 0.01 to 1000 mg/kg body weight)
Description: While ibogaine has been disclosed for treatment of substance addiction, its use in humans is complicated by the fact that the ranges in the prior art are exceptionally broad (0.01 to 1000 mg/kg body weight).

CCC1CC2CC3c4[nH]c5ccc(OC)cc5c4CCN(C2)C13 (centres unmarked) [ibogaine]
prolongation of the treated patient's QT interval (QT interval): dose dependent prolongation | impact on the alleviation of pain in patients (pain in patients): minimal impact
